# Measurements published in patent US10426778B2, “Prophylactic agent and/or therapeutic agent for diffuse large B-cell lymphoma” (ONO PHARMACEUTICAL CO., LTD., priority 2014, dated 2019).
# System: ABC-DLBCL patients
# Assay: Open label multicenter non-randomized clinical trial of the present compound as monotherapy in recurrent or refractory ABC-DLBCL patients
# Format: in vivo, human
# Description: A clinical trial was conducted by an open label multicenter non-randomized test by administering 6-amino-9-[(3R)-1-(2-butynoyl)-3-pyrrolidinyl]-7-(4-phenoxyphenyl)-7,9-dihydro-8H-purin-8-one hydrochloride, the present compound, as monotherapy to an ABC-DLBCL patient.
# Among the patients who had already received treatment, who had been diagnosed as a non-Hodgkin's lymphoma, for whom higher preference order of treatment was not present, and who fell under the following definition of “recurrent” or “refractory”, patients satisfying the following conditions entered.
# Recurrent: Patients who attained Complete Response (CR), Complete Response, unconfirmed (CRu), CR with incomplete marrow recovery (CRi) or Partial Response (PR) for 6 months or longer after the last treatment of non-Hodgkin's lymphoma, and for whom pathological advance was recognized.
# Refractory: Patients who could not attain CR, CRu, CRi or PR after the last treatment of non-Hodgkin's lymphoma, or patients who acquired CR, CRu, CRi or PR for shorter than 6 months after the last treatment, but for whom pathological advance was recognized.
# Condition: Two or more NHL treatments have already failed.
# A fixed dose of the present compound was orally administered once per day, with one cycle being treatment for 28 days in 3 patients per one cohort. The schedule was such that this cycle was conducted until 6 cycles, and could be maximally extended to 24 cycles. In the first cohort, all the patients were administered at a fixed dose of 20 mg of the present compound.
# Regarding the NHL patients who entered under the above conditions, an immunohistochemical method or gene expression profiling was conducted according to a conventional method using a diagnostic sample obtained by tissue biopsy excising a part of affected lymph node, so that patients affected with ABC-DLBCL were extracted.
# Primary evaluation items were safety, tolerance and dose limiting toxicities (DLTs). These items were evaluated using manifestation of adverse event, physical examination, clinical test, vital sign and cardiograph. In addition, the intensity of the adverse event was determined using Common Terminology Criteria for Adverse Events (CTCAE) version 4.0 of the National Cancer Institute.
# Secondary evaluation items were Overall Response Rate (ORR), Complete Response Rate (CR, CRu, CRi), Partial Response Rate (PR), Progression Free Survival (PFS), Overall Survival (OS), Duration of Response, Event Free Survival (EFS), Pharmacokinetics (PK) and Pharmacodynamics (PD). In addition, the evaluations of CR, CRu and PR were conducted by referring to evaluation criteria described in Journal of Clinical Oncology, Vol. 17, No. 4, pages 1244-1253, 1999.
# Biopsy samples of tumor were obtained from ABC-DLBCL patients before administration of the present compound. From the samples, genomic DNA was extracted by conventional method, and the presence or absence of CD79B mutation was confirmed in accordance with the method described in Nature, No. 463, pages 88-92, 2010. As a result, it was seen that, among the 8 ABC-DLBCL patients, all of 7 evaluable patients had CD79B wild-type gene background.
# [1] = in 8 cases, cohort 4 (160 mg) or cohort 5 (520 mg)
structure (smiles),measurement,setting,value
"CC#CC(=O)N1CC[C@@H](n2c(=O)n(-c3ccc(Oc4ccccc4)cc3)c3c(N)ncnc32)C1.Cl [present compound, 6-amino-9-[(3R)-1-(2-butynoyl)-3-pyrrolidinyl]-7-(4-phenoxyphenyl)-7,9-dihydro-8H-purin-8-one hydrochloride]",Overall Response Rate (ORR) in ABC-DLBCL patients having CD79B wild-type,6 cases in 7 cases,85%
same,bleeding-associated event such as intracranial bleeding as adverse event,13 ABC-DLBCL patients,not seen at all
same,tolerance,13 ABC-DLBCL patients administered the present compound,high tolerance
same,Overall Response Rate (ORR),"ABC-DLBCL patients, 8 cases, cohort 4 (160 mg) or cohort 5 (520 mg), oral once per day",75%
same,adverse events classified into grade 3 (drug reaction and lymphopenia),"among the 5 cases with adverse event of 13 cases, CTCAE version 4.0",2 cases
same,PR cases,[1],6 cases
same,disease progression cases,[1],2 cases
same,median value of decrease in lymph node,"in the 6 PR cases, cohort 4 (160 mg) or cohort 5 (520 mg)",81.5%
same,decrease in lymph node swelling recognized,"of 8 ABC-DLBCL patients, first administration cycle, oral once per day",6 patients
same,adverse event associated with the present compound,of 13 cases,5 cases
